From patent US20220008373A1 (priority 2020, published 2022) come the findings set out here.

In this experiment the test system is pseudovirus carrying the Spike protein of SARS-CoV-2. The experiment is classed as cell-based.

Each structure is given as a SMILES string. Entries after “also recorded” stand apart in the source; their conditions may differ.

For the molecule `CC(C)C[C@H](N[C@@H](Cc1cncn1Cc1cc(Cl)cc(Cl)c1)C(=O)O)C(=O)O` [MLN-4760], the “inhibition of pseudovirus infection (attachment and entry)” value is on record as “No inhibition of viral infection; also recorded: no ability to block the entrance to the pseudovirus”.

For the molecule `CN1CCN(c2ccc(CNC(=O)c3ccno3)cc2)CC1` [SSAA09E2], the “inhibition of pseudovirus infection (attachment and entry)” value is on record as “dose-dependent inhibition of pseudovirus infection; also recorded: effective at blocking infection”.
